Measured values taken from patent US11826355B1, “Aspirin-mimetic antioxidants for treatment of age-related cataract” (priority 2022, dated 2023).
Values joined by “and” are separate entries in the source; they are usually repeats but may differ in a detail not shown here. Identical values can stand only once.

What was measured:
[1] = test system: Wistar rat cataract model induced by sodium selenite; test: Lens opacity score (slit lamp) in sodium selenite-induced cataract rat model; format: in vivo; parameters: lens opacity score, Mean / lens opacity score / lens opacity score, raw data per eye (OD/OS, rats 1-6): scale not given here
Description: A new batch of eye drops solutions was prepared every week. Placebo was a solution that contained the same excipients but without the drug compound. The eye drops solutions were prepared as follows:
3. An illustrative procedure: To a 250 mL volume flask were added 25 mg each of the excipients, sodium borate, boric acid, sodium chloride, and potassium chloride, an aspirin mimetic drug compound to be tested (e.g., DPL-004, 9.0 mg), and about 200 ml of sterilized water to form a mixture. The resultant mixture was shaken well to dissolve solids; and more sterilized water was added to bring the volume of solution to 250 mL, which was shaken well and then distributed into small portions. Each portion was labeled with a concentration of 3.6 mg/100 mL and the preparation date and was stored in a refrigerator for future use.
4. Eye drops solutions comprising DPL-004 at a concentration of 36 mg/100 mL and 12 mg/100 mL were prepared similarly according to the above procedure by using 90 mg and 30 mg of DPL-004, respectively, while maintaining the same amounts of excipients as shown above.
(§1) At the age of 11-12 days after birth, all suckling rats underwent a single intraperitoneal injection of sodium selenite (30 μmol/kg, i.e., 0.1 ml/10 g) for model-building. Sodium selenite solution was configured with normal saline at a concentration of 3 mM.
(§2) At the age of 19 days after birth (D-1) of the suckling rats, 30 lens opacities were selected for a cloudy rating at Class 4 or 5; Wister suckling rats were randomly divided into 5 groups (G1-G5 groups, 6 in each group); and a cage of suckling rats as G6 was randomly selected after the animals opened their eyes (14-16 days of age).
(§3) The subject suckling rats of groups G1 to G5 were treated at the age of 20 days after birth (D1), and the specific dosing information is shown in Table 1. Treatment in the G6 group was conducted after the animals opened their eyes (14-16 days old, D-6-D-4), and the specific dosing information is shown in Table 1.
At D-1, in the fourth week of treatment, the slit lamp was used at the end of administration to observe the turbidity of the lens and grade it, and the grading and scoring criteria are shown in the following Table 2.

[2] = Body weight of rats in the cataract model study; format: in vivo, rat; conditions: 10 μl 3 times/day
Description: as §1, §2, §3

[3] = General clinical observations during 60-day eye drop administration; format: in vivo, rat; conditions: eye drops 3 times/day, 60-day administration phase, all concentrations
Description: as §2

[4] = G3, 36 mg/0.1 L D1-D31 then 1.8 mg/0.1 L D32-D60, 10 μl 3 times/day, pH 6.5, day 60
[5] = G3, 36 mg/0.1 L, 10 μl 3 times/day, pH 6.5, day 28
[6] = G3, 36 mg/0.1 L, 10 μl 3 times/day, pH 6.5, day -1 (before administration)
[7] = G4, 12 mg/0.1 L, 10 μl 3 times/day, pH 6.5, day 28
[8] = G4, 12 mg/0.1 L, 10 μl 3 times/day, pH 6.5, day 60
[9] = G4, 12 mg/0.1 L, 10 μl 3 times/day, pH 6.5, day -1 (before administration)
[10] = G5, 3.6 mg/0.1 L, 10 μl 3 times/day, pH 6.5, day 28
[11] = G5, 3.6 mg/0.1 L, 10 μl 3 times/day, pH 6.5, day 60
[12] = G5, 3.6 mg/0.1 L, 10 μl 3 times/day, pH 6.5, day -1 (before administration)
[13] = G6 preventive dosing from D-6, 3.6 mg/0.1 L, 10 μl 3 times/day, pH 7.4, day 22
[14] = G6 preventive dosing from D-6, 3.6 mg/0.1 L, 10 μl 3 times/day, pH 7.4, day -1
[15] = G6 preventive dosing from D-6, 3.6 mg/0.1 L, 10 μl 3 times/day, pH 7.4, day -6
[16] = G6 preventive dosing from D-6, 3.6 mg/0.1 L, 10 μl 3 times/day, pH 7.4 to D31 then pH 6.0 D32-D60, day 60

O=C(Sc1ccccc1C(=O)S)c1cccnc1 [DPL-004, 2-[(pyridine-3-carbonyl)sulfanyl]benzene-1-carbothioic S-acid]
lens opacity score, Mean [1, 4]: 2.75 | lens opacity score, raw data per eye (OD/OS, rats 1-6) [1, 4]: 2 and 3 and 4 | lens opacity score, Mean [1, 5]: 3.58 | lens opacity score, raw data per eye (OD/OS, rats 1-6) [1, 5]: 3 and 4 | lens opacity score, Mean [1, 6]: 4.00 | lens opacity score, raw data per eye (OD/OS, rats 1-6) [1, 6]: 4 | lens opacity score, Mean [1, 7]: 3.50 | lens opacity score, raw data per eye (OD/OS, rats 1-6) [1, 7]: 3 and 4 | lens opacity score, Mean [1, 8]: 2.58 | lens opacity score, raw data per eye (OD/OS, rats 1-6) [1, 8]: 2 and 3 and 4 | lens opacity score, Mean [1, 9]: 4.00 | lens opacity score, raw data per eye (OD/OS, rats 1-6) [1, 9]: 4 | Efficacy (reduction of lens opacity score vs placebo G2) ([1]; G4, 12 mg/0.1 L, pH 6.5, D28): 4.63% | Efficacy (reduction of lens opacity score vs placebo G2) ([1]; G4, 12 mg/0.1 L, pH 6.5, D60): 14.0% | lens opacity score, Mean [1, 10]: 3.42 | lens opacity score, raw data per eye (OD/OS, rats 1-6) [1, 10]: 4 and 3 | lens opacity score, Mean [1, 11]: 2.58 | lens opacity score, raw data per eye (OD/OS, rats 1-6) [1, 11]: 3 and 4 and 2 | lens opacity score, Mean [1, 12]: 4.00 | lens opacity score, raw data per eye (OD/OS, rats 1-6) [1, 12]: 4 | Efficacy (reduction of lens opacity score vs placebo G2) ([1]; G5, 3.6 mg/0.1 L, pH 6.5, D28): 6.81% | Efficacy (reduction of lens opacity score vs placebo G2) ([1]; G5, 3.6 mg/0.1 L, pH 6.5, D60): 14.0% | lens opacity score ([1]; G6 early intervention, 3.6 mg/0.1 L, pH 7.4, in the period of 28 days): 4.0 | lens opacity score, Mean [1, 13]: 4.00 | lens opacity score, raw data per eye (OD/OS, rats 1-6) [1, 13]: 4 | lens opacity score, Mean [1, 14]: 4.00 | lens opacity score, raw data per eye (OD/OS, rats 1-6) [1, 14]: 4 | lens opacity score, Mean [1, 15]: 4.00 | lens opacity score, raw data per eye (OD/OS, rats 1-6) [1, 15]: 4 | lens opacity score, Mean [1, 16]: 3.08 | lens opacity score, raw data per eye (OD/OS, rats 1-6) [1, 16]: 4 and 3 and 2 | effect on cataract in the rat model (in words) ([1]; eye drops, rat model): gradually reversing cataracts | Body Weight, Mean ([2]; G3, 36 mg/0.1 L (D32-D60 1.8 mg/0.1 L), pH 6.5, day 4): 58.22 g | Body Weight, Mean ([2]; G3, 36 mg/0.1 L (D32-D60 1.8 mg/0.1 L), pH 6.5, day 11): 97.48 g | Body Weight, Mean ([2]; G3, 36 mg/0.1 L (D32-D60 1.8 mg/0.1 L), pH 6.5, day 18): 130.98 g | Body Weight, Mean ([2]; G3, 36 mg/0.1 L (D32-D60 1.8 mg/0.1 L), pH 6.5, day 25): 161.68 g | Body Weight, Mean ([2]; G3, 36 mg/0.1 L (D32-D60 1.8 mg/0.1 L), pH 6.5, day 32): 184.12 g | Body Weight, Mean ([2]; G3, 36 mg/0.1 L (D32-D60 1.8 mg/0.1 L), pH 6.5, day 39): 210.05 g | Body Weight, Mean ([2]; G3, 36 mg/0.1 L (D32-D60 1.8 mg/0.1 L), pH 6.5, day 46): 232.55 g | Body Weight, Mean ([2]; G3, 36 mg/0.1 L (D32-D60 1.8 mg/0.1 L), pH 6.5, day 53): 256.08 g | Body Weight, Mean ([2]; G3, 36 mg/0.1 L (D32-D60 1.8 mg/0.1 L), pH 6.5, day 60): 273.13 g | Body Weight, Mean ([2]; G3, 36 mg/0.1 L (D32-D60 1.8 mg/0.1 L), pH 6.5, day -1 (before administration)): 45.68 g | Body Weight, Mean ([2]; G4, 12 mg/0.1 L, pH 6.5, day 4): 59.37 g | Body Weight, Mean ([2]; G4, 12 mg/0.1 L, pH 6.5, day 11): 98.03 g | Body Weight, Mean ([2]; G4, 12 mg/0.1 L, pH 6.5, day 18): 138.57 g | Body Weight, Mean ([2]; G4, 12 mg/0.1 L, pH 6.5, day 25): 166.05 g | Body Weight, Mean ([2]; G4, 12 mg/0.1 L, pH 6.5, day 32): 188.40 g | Body Weight, Mean ([2]; G4, 12 mg/0.1 L, pH 6.5, day 39): 209.05 g | Body Weight, Mean ([2]; G4, 12 mg/0.1 L, pH 6.5, day 46): 232.02 g | Body Weight, Mean ([2]; G4, 12 mg/0.1 L, pH 6.5, day 53): 240.18 g | Body Weight, Mean ([2]; G4, 12 mg/0.1 L, pH 6.5, day 60): 269.85 g | Body Weight, Mean ([2]; G4, 12 mg/0.1 L, pH 6.5, day -1 (before administration)): 46.10 g | Body Weight, Mean ([2]; G5, 3.6 mg/0.1 L, pH 6.5, day 4): 60.25 g | Body Weight, Mean ([2]; G5, 3.6 mg/0.1 L, pH 6.5, day 11): 101.48 g | Body Weight, Mean ([2]; G5, 3.6 mg/0.1 L, pH 6.5, day 18): 149.00 g | Body Weight, Mean ([2]; G5, 3.6 mg/0.1 L, pH 6.5, day 25): 188.37 g | Body Weight, Mean ([2]; G5, 3.6 mg/0.1 L, pH 6.5, day 32): 230.95 g | Body Weight, Mean ([2]; G5, 3.6 mg/0.1 L, pH 6.5, day 39): 257.97 g | Body Weight, Mean ([2]; G5, 3.6 mg/0.1 L, pH 6.5, day 46): 304.65 g | Body Weight, Mean ([2]; G5, 3.6 mg/0.1 L, pH 6.5, day 53): 323.03 g | Body Weight, Mean ([2]; G5, 3.6 mg/0.1 L, pH 6.5, day 60): 343.05 g | Body Weight, Mean ([2]; G5, 3.6 mg/0.1 L, pH 6.5, day -1 (before administration)): 45.40 g | Body Weight, Mean ([2]; G6 preventive dosing from D-6, 3.6 mg/0.1 L, pH 7.4 (D32-D60 pH 6.0), day 4): 62.15 g | Body Weight, Mean ([2]; G6 preventive dosing from D-6, 3.6 mg/0.1 L, pH 7.4 (D32-D60 pH 6.0), day 11): 106.70 g | Body Weight, Mean ([2]; G6 preventive dosing from D-6, 3.6 mg/0.1 L, pH 7.4 (D32-D60 pH 6.0), day 18): 140.92 g | Body Weight, Mean ([2]; G6 preventive dosing from D-6, 3.6 mg/0.1 L, pH 7.4 (D32-D60 pH 6.0), day 25): 171.78 g | Body Weight, Mean ([2]; G6 preventive dosing from D-6, 3.6 mg/0.1 L, pH 7.4 (D32-D60 pH 6.0), day 32): 211.43 g | Body Weight, Mean ([2]; G6 preventive dosing from D-6, 3.6 mg/0.1 L, pH 7.4 (D32-D60 pH 6.0), day 39): 251.03 g | Body Weight, Mean ([2]; G6 preventive dosing from D-6, 3.6 mg/0.1 L, pH 7.4 (D32-D60 pH 6.0), day 46): 283.27 g | Body Weight, Mean ([2]; G6 preventive dosing from D-6, 3.6 mg/0.1 L, pH 7.4 (D32-D60 pH 6.0), day 53): 303.65 g | Body Weight, Mean ([2]; G6 preventive dosing from D-6, 3.6 mg/0.1 L, pH 7.4 (D32-D60 pH 6.0), day 60): 330.03 g | Body Weight, Mean ([2]; G6 preventive dosing from D-6, 3.6 mg/0.1 L, pH 7.4 (D32-D60 pH 6.0), day -1): 45.27 g | Body Weight, Mean ([2]; G6 preventive dosing from D-6, 3.6 mg/0.1 L, pH 7.4 (D32-D60 pH 6.0), day -6): 35.83 g | abnormal symptoms (activity status, body weight, skin hair, secretion morphology and color) [3]: no abnormal symptoms
